We go through 31 compounds from patent publication US6528528B2 (Warner-Lambert Company, priority 1997, dated 2003).

For orientation: IC50 means the concentration that inhibits the measured activity by half.

The target in the first test is T1, rabbit reticulocyte 15-LO (Oryctolagus cuniculus, UniProt P12530).
T1 construct: Fifteen-lipoxygenase was obtained from phenylhydrazine-treated rabbits and purified per the method of Rapoport; from tissue; host or cells: reticulocytes of phenylhydrazine-treated rabbits
T1 sequence (P12530 1-663): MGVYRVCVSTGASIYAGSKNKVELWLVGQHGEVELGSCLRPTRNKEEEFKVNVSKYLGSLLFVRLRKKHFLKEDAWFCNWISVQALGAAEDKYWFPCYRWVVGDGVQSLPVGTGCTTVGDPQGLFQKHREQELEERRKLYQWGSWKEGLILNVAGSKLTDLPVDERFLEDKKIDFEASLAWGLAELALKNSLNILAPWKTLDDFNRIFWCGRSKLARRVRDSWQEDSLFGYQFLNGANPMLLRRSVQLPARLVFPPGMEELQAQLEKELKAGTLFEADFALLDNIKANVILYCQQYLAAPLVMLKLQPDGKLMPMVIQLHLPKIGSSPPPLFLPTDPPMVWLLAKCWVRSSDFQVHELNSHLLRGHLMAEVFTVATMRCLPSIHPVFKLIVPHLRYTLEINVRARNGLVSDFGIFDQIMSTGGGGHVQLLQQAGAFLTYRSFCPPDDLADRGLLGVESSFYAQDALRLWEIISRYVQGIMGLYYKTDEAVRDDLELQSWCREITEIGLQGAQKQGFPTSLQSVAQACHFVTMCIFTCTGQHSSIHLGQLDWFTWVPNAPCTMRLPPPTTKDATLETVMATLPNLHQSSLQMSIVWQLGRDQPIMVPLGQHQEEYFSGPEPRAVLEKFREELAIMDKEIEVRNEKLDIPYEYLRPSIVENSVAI
The experiment in a line: Rabbit Reticulocyte 15-LO Assay (h15LO). The following applies: Table 2; 2U rabbit reticulocyte 15-LO, 174 μM linoleic acid, 15 minutes at 4° C. The format is biochemical. The essentials:
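Linoleic acid oxidation to 13-HPODE measured at 4° C. over 15 minutes, using 174 μM substrate and 2U enzyme purified from phenylhydrazine-treated rabbits in PBS/0.2% Na cholate. Product peak areas calibrated with authentic 13-HODE; inhibition expressed versus maximal reaction.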
For the compound `COc1ccc(C(=O)Nc2ccccc2)cc1NCc1cccc(Cl)c1` [Example 231, 3-(3-Chloro-benzylamino)-4-methoxy-N-phenyl-benzamide], inhibition was half-maximal at 224 nM (IC50).
The same measure, in the same setting: with `COc1ccc(NC(=O)c2ccc(Cl)c(Cl)c2)cc1NCc1cccc(F)c1` [Example 244, 3,4-Dichloro-N-[3-(3-fluoro-benzylamino)-4-methoxy-phenyl]-benzamide] the figure was 86 nM.
In the case of `COc1ccc(C(=O)Nc2ccccc2)cc1CNC(=S)Nc1cc(Cl)cc(Cl)c1` [Example 247, 3-[3-(3,5-Dichloro-phenyl)-thioureidomethyl]-4-methoxy-N-phenyl-benzamide], 40 nM corresponded to half-maximal inhibition (IC50).
Same read-out and setting: with `COc1ccc(C(=O)Nc2ccccc2)cc1NS(=O)(=O)c1cc(Cl)cc(Cl)c1` [Example 248, 3-(3,5-Dichloro-benzenesulfonylamino)-4-methoxy-N-phenyl-benzamide] the figure was 46 nM.
Same read-out and setting: then `COc1ccc(C(=O)Nc2ccccc2)cc1CNS(=O)(=O)c1cc(Cl)cc(Cl)c1` [Example 249, 3-[(3,5-Dichloro-benzenesulfonylamino)-methyl]-4-methoxy-N-phenyl-benzamide], with 58 nM; and `COc1ccc(C(=O)Nc2ccc(F)c(F)c2)cc1NCc1cccs1` [Example 258, 4-Methoxy-3-[(thiophen-2-ylmethyl)-amino]-N-(3,4-difluoro-phenyl)-benzamide], with 35 nM; and `COc1ccc(C(=O)Nc2ccccc2)cc1NCc1cccs1` [Example 259, 4-Methoxy-3-[(thiophen-2-ylmethyl)-amino]-N-phenyl-benzamide], with 137 nM.
Still for that read-out and setting: then `COc1ccc(C(=O)Nc2ccc(F)cc2)cc1NCc1cccs1` [Example 260, 4-Methoxy-3-[(thiophen-2-ylmethyl)-amino]-N-(4-fluoro-phenyl)-benzamide], with 186 nM.

The same test, now with this note: Table 2; concentration not given.
`COc1ccc(C(=O)Nc2ccc(F)c(F)c2)cc1NCc1ccccc1` [Example 227, 3-Benzylamino-4-methoxy-N-(3,4-difluoro-phenyl)-benzamide]: the “h15LO, value given as bare %” value is on record as 95.74%.
Take `COc1ccc(C(=O)Nc2ccccc2)cc1NCc1ccc([N+](=O)[O-])c(O)c1` [Example 228, 3-(3-Hydroxy-4-nitro-benzylamino)-4-methoxy-N-phenyl-benzamide]: the “h15LO, value given as bare %” value is on record as 92.92%.
Turning to `COc1ccc(C(=O)Nc2ccccc2)cc1NCc1cccc(C#N)c1` [Example 229, 3-(3-Cyano-benzylamino)-4-methoxy-N-phenyl-benzamide], the “h15LO, value given as bare %” value came out at 92.70%.
Still for that read-out and setting: then `COc1ccc(C(=O)Nc2ccc(F)c(F)c2)cc1NCc1cccc(C(=O)O)c1` [Example 230, 3-{[5-(3,4-Difluoro-phenylcarbamoyl)-2-methoxy-phenylamino]-methyl}-benzoic Acid], with 92.57%.
The same measure, in the same setting: then `COc1ccc(C(=O)Nc2ccccc2)cc1NCc1ccc(C(C)(C)C)cc1` [Example 232, 3-(4-tert-Butyl-benzylamino)-4-methoxy-N-phenyl-benzamide], with 80.36%; and `COc1ccc(C(=O)Nc2ccccc2)cc1NCc1ccc(C#N)cc1` [Example 233, 3-(4-Cyano-benzylamino)-4-methoxy-N-phenyl-benzamide], with 73.46%.
On to `COc1ccc(C(=O)Nc2ccc(F)c(F)c2)cc1NCc1ccc(C(=O)O)cc1` [Example 234, 4-{[5-(3,4-Difluoro-phenylcarbamoyl)-2-methoxy-phenylalino]-methyl}-benzoic Acid], for which the “h15LO, value given as bare %” value was found to be 71.56%.
The same measure, in the same setting: with `CCCOc1ccc(CNc2cc(C(=O)Nc3ccccc3)ccc2OC)cc1` [Example 235, 4-Methoxy-3-(4-propoxy-benzylamino)-N-phenyl-benzamide] the figure was 67.26%; with `COc1ccc(C(=O)Nc2ccccc2)cc1NCc1ccc(-c2ccccc2)cc1` [Example 236, 3-[(Biphenyl-4-ylmethyl)-amino]-4-methoxy-N-phenyl-benzamide], 64.09%; with `COc1ccc(C(=O)Nc2ccccc2)cc1NCc1ccc(C)cc1` [Example 237, 4-Methoxy-3-(4-methyl-benzylamino)-N-phenyl-benzamide], 64%.
`COc1ccccc1CNc1cc(C(=O)Nc2ccccc2)ccc1OC` [Example 238, 4-Methoxy-3-(2-methoxy-benzylamino)-N-phenyl-benzamide]: the “h15LO, value given as bare %” value came to 60%.
On the same count and under the same terms, with `CCCCc1ccc(CNc2cc(C(=O)Nc3ccccc3)ccc2OC)cc1` [Example 239, 3-(4-Butyl-benzylamino)-4-methoxy-N-phenyl-benzamide] the figure was 58.44%.
Still for that read-out and setting: with `COc1ccc(C(=O)Nc2ccc(Cl)c(Cl)c2)cc1NCc1cccc(F)c1` [Example 240, 3-(3-Fluoro-benzylamino)-4-methoxy-N-(3,4-dichloro-phenyl)-benzamide] the figure was 58.09%; with `COc1ccc(C(=O)Nc2ccccc2)cc1NCc1cccc(C(=O)O)c1` [Example 241, 3-[(2-Methoxy-5-phenylcarbamoyl-phenylamino)-methyl]-benzoic Acid], 56.33%.
On the same count and under the same terms, with `COc1ccc(C(=O)Nc2ccccc2)cc1NCc1ccc(C)c(C)c1` [Example 242, 3-(3,4-Dimethyl-benzylamino)-4-methoxy-N-phenyl-benzamide] the figure was 50%.
Consider `COc1ccc(C(=O)Nc2ccccc2)cc1NCc1ccc(C(C)C)cc1` [Example 243, 3-(4-Isopropyl-benzylamino)-4-methoxy-N-phenyl-benzamide], for which the “h15LO, value given as bare %” value worked out at 49.19%.
Same read-out and setting: then `COc1ccc(NC(=O)c2ccc(F)c(F)c2)cc1NCc1cccc(O)c1` [Example 245, 3,4-Difluoro-N-[3-(3-hydroxy-benzylamino)-4-methoxy-phenyl]-benzamide], with 98.02%; and `COc1ccc(NC(=O)c2ccc(F)c(F)c2)cc1NCc1cccc(C(=O)O)c1` [Example 246, 3-{[5-(3,4-Difluoro-benzoylamino)-2-methoxy-phenylandno]-methyl}-benzoic Acid], with 59.75%.
On the same count and under the same terms, then `COc1ccc(C(=O)Nc2ccccc2)cc1N(S(=O)(=O)c1cc(Cl)cc(Cl)c1)S(=O)(=O)c1cc(Cl)cc(Cl)c1` [Example 251, 3-[Bis[(3,5-dichlorophenyl)sulfonyl]amino]-4-methoxy-N-phenyl-benzamide], with 62.01%; and `COc1ccc(C(=O)Nc2ccccc2)cc1NC(=S)Nc1cccc([N+](=O)[O-])c1` [Example 254, 4-Methoxy-3-[3-(3-nitro-phenyl)-thioureido]-N-phenyl-benzamide], with 51%.
On the same count and under the same terms, then `Cc1ccc(C(=O)Nc2ccccc2)cc1NC(=O)c1cc(Cl)cc(Cl)c1` [Example 255, 3-[(3,5-Dichlorobenzoyl)amino]-4-methyl-N-phenyl-benzamide], with 47%; and `COc1ccc(C(=O)Nc2ccc(Cl)c(Cl)c2)cc1NCc1cccs1` [Example 261, 4-Methoxy-3-[(thiophen-2-ylmethyl)-amino]-N-(3,4-dichloro-phenyl)-benzamide], with 98.57%; and `COc1ccc(C(=O)Nc2cccnc2)cc1NCc1cccs1` [Example 262, 4-Methoxy-3-[(thiophen-2-ylmethyl)-amino]-N-pyridin-3-yl-benzamide], with 67.58%.
